What was measured:
[1] = tested on: Methicillin Resistant Staphylococcus Aureus (MRSA); test: Agar plate antibacterial test (Example 1); conditions: liquid added to hollow circle of seeded agar plate, FIG. 1
Description: (§1) A 1M solution of potassium nitrite was prepared by diluting 8.51 g of KNO2 in 100 ml of distilled water. 17.612 g of ascorbic acid was diluted in 100 ml of distilled water to form a 1M solution. The three stock solutions were prepared a few minutes prior to the experiments.
(§2) A volume of NaNO2 and an equal volume of KNO2 were mixed with twice the volume of ascorbic acid in a sterile container to produce an “oxides of nitrogen” containing solution. A reaction between the nitrites and the acid occurred instantly. The gas produced was released and 2 ml of the premixed liquid (0.25M) was added to 20 ml of distilled water to give a final concentration of the solution of 1.25 mM.
(§3) Separate samples of NaNO2, KNO2 and ascorbic acid were also prepared as described above.
(§4) An overnight culture of bacteria was prepared by inoculating 20 ml of LB (Luria-Bertani 10 g Bacto-tryptone, +5 g Bacto-yeast extract, +10 g sodium chloride per liter, at pH 7.5) broth with 2 to 3 colonies, and incubating at 37° C. overnight. Broth cultures containing approximately 109 organisms were produced. Bacteria were diluted 1:1000 using phosphate buffer saline (PBS) and 100 μl of diluted broth cultures were seeded on the Brain-Heart agar plates. Prior to seeding bacteria on to the surface of the agar plates a piece of agar (approximately 70 mm in diameter) from the centre of the plates was removed. […]

[2] = tested on: Candida Albicans (CA); test: Agar plate antibacterial test (Example 2); conditions: liquid added to hollow circle of seeded agar plate, FIG. 2
Description: as §1, §2, §3, §4

[3] = tested on: Pseudomonas Aeruginosa (PS); test: Agar plate antibacterial test (Example 3); conditions: liquid added to hollow circle of seeded agar plate, FIG. 3
Description: as §1, §2, §3, §4

[4] = tested on: Coagulase negative Staphylococcus (CNS); test: Agar plate antibacterial test (Example 4); conditions: liquid added to hollow circle of seeded agar plate, FIG. 4
Description: as §1, §2, §3, §4

[5] = tested on: Methicillin Resistant Staphylococcus Aureus (MRSA); test: Agar plate exposed to gaseous NO in a closed box (Example 5); assay type: cell-based; conditions: overnight incubation in closed box with NO gas, FIG. 5
Description: A Methicillin Resistant Staphylococcus Aureus (MRSA) culture was produced in the same manner as for Examples 1 to 4. The agar plate was placed in a polystyrene box. Gaseous NO was produced by reacting 10 ml 1M ascorbic acid with 5 ml 1M NaNO2 and 5 ml 1M KNO2 in the box and the lid of the box replaced immediately, followed by overnight incubation of the culture.

[6] = pH change on addition of L-ascorbic acid to sodium nitrite (Examples 16 and 17); assay type: physicochemical; conditions: 1M sodium nitrite in normal saline, before acid addition
Description: The pH change was measured when L-ascorbic acid was added to sodium nitrite incrementally and as a single addition.
Analytical grade (>99% purity) sodium nitrite (NaNO2) and L-ascorbic acid (C6H8O6) from Sigma-Aldrich, UK were used. Saline (0.9% wv of NaCl) was from Baxter Healthcare-UK was also used.
Normal saline was used as solvent in the preparation of the solutions of sodium nitrite and ascorbic acid. All solutions were prepared at room temperature (22-25° C.) in lots of 25 or 50 ml and were used within 10-20 days. Stock solutions were kept in airtight vessels away from light.
All pH measurements of the solutions were carried out with a Wissenschaftlich-Technische Werkstätten (WTW) pH meter, model pH340i along with a SenTix 20 pH combination electrode incorporating a thermocouple. The electrode was calibrated with freshly prepared buffer calibrating solutions (pH 7.00 and 4.00±0.002). Calibrating solutions were prepared from ALDRICH Tri-check buffer capsules, Aldrich, USA.
The pH of the solutions was measured with the addition of a standard magnetic stir bar operating at 60 rpm. At least 12 ml of solutions were used to ensure that the electrode was completely immersed. 1M solutions of sodium nitrite and ascorbic acid were prepared using normal saline as solvent. In Example 16, 1 ml of acid was added to the nitrite every 10 minutes. […]

O=C1O[C@H]([C@@H](O)CO)C(O)=C1O [A, ascorbic acid]
bacterial colonies on agar plate [1]: large amount of bacteria | bacterial colonies on agar plate [2]: large amount of bacteria | bacterial colonies on agar plate [3]: large amount of bacteria | bacterial colonies on agar plate [4]: large amount of bacteria

[N]=O [Gaseous NO, nitric oxide]
visible bacterial cultures on agar plate [5]: no remaining visible bacterial cultures

O=NO [sodium nitrite solution, sodium nitrite]
initial pH [6]: approximately 7.35

From US9011935B2, “Therapeutic composition and use” (priority 2006, dated 2015)
